Measured values: ChEMBL document CHEMBL1201862, “PubChem BioAssay data set” (2004)
Where “and” joins values, the source holds several entries; their conditions need not be identical. Equal values may be shown once.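 Compound exposure: 48 hours, 5 concentrations, 96-well plates. GI50 is the concentration that inhibits growth by half.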 Calls of active or inactive are those of the source. Cut-off read from the data, not from the text of the source: active = GI50 up to about 1.1 µM and inactive = higher.

Assays:
Test in all cases: inhibition of tumour cell growth, NCI panel, 48 h
[1] = system: SK-MEL-5
[2] = system: LOX IMVI
[3] = system: SK-MEL-2
[4] = system: SW-620
[5] = system: SNB-19
[6] = system: NCI-H522
[7] = system: RPMI-8226
[8] = system: HCC 2998
[9] = system: UACC-257
[10] = system: SN12C
[11] = system: UACC-62
[12] = system: NCI-H226
[13] = system: NCI-H460
[14] = system: HCT-15
[15] = system: OVCAR-8
[16] = system: OVCAR-4
[17] = system: CAKI-1
[18] = system: SF-268
[19] = system: KM12
[20] = system: EKVX

In the case of Oc1ccc2ccccc2c1/N=N/c1ccccc1, the GI50 [1] is reported as > 100 µM (inactive), the GI50 [2] is reported as > 100 µM (inactive) and the GI50 [3] is reported as > 100 µM (inactive). The GI50 [4] was > 100 µM (inactive), the GI50 [5] was > 100 µM (inactive) and > 72.8 µM (inactive) and the GI50 [6] was > 100 µM (inactive) and > 75.3 µM (inactive). The GI50 [7] was > 100 µM (inactive), the GI50 [8] was > 100 µM (inactive) and the GI50 [9] was > 100 µM (inactive). For the same compound, the GI50 [10] was > 100 µM (inactive), the GI50 [11] was > 100 µM (inactive) and the GI50 [12] was 73.3 µM (inactive). For the same compound, the GI50 [13] was > 100 µM (inactive), the GI50 [14] was > 100 µM and the GI50 [15] was 56.1 µM (inactive). The GI50 [16] was > 70.5 µM (inactive) and 45.2 µM (inactive) and the GI50 [17] was > 100 µM (inactive).
CCN1CCC(O)(C(C(=O)O)c2ccccc2)CC1 (stereo not given) was tested, and the GI50 [1] was > 100 µM (inactive), the GI50 [2] was > 100 µM (inactive) and the GI50 [3] was > 100 µM (inactive). For the same compound, the GI50 [4] was > 100 µM (inactive), the GI50 [5] was > 100 µM (inactive) and the GI50 [6] was > 100 µM (inactive). The GI50 [7] was > 100 µM (inactive), the GI50 [8] was > 100 µM (inactive) and the GI50 [9] was > 100 µM (inactive). The GI50 [11] was > 100 µM (inactive), the GI50 [12] was > 100 µM (inactive) and the GI50 [13] was > 100 µM (inactive). For the same compound, the GI50 [18] was > 100 µM (inactive), the GI50 [14] was > 100 µM and the GI50 [19] was > 100 µM (inactive). The GI50 [15] was > 100 µM (inactive), the GI50 [20] was > 100 µM (inactive) and the GI50 [16] was > 100 µM (inactive). The GI50 [17] was > 100 µM (inactive).
In the case of COCCCNc1nc(N)c(C#N)c(C#N)c1C#N, the GI50 [1] is reported as > 10 µM (inactive), the GI50 [2] is reported as > 10 µM (inactive) and the GI50 [3] is reported as > 10 µM (inactive). The GI50 [4] was > 10 µM (inactive), the GI50 [5] was > 10 µM (inactive) and the GI50 [6] was > 10 µM (inactive). For the same compound, the GI50 [7] was > 10 µM (inactive), the GI50 [8] was > 10 µM (inactive) and the GI50 [10] was > 10 µM (inactive). The GI50 [11] was > 10 µM (inactive), the GI50 [12] was > 10 µM (inactive) and the GI50 [13] was > 10 µM (inactive). The GI50 [18] was > 10 µM (inactive), the GI50 [14] was > 10 µM and the GI50 [19] was > 10 µM (inactive). The GI50 [15] was > 10 µM (inactive), the GI50 [20] was > 10 µM (inactive) and the GI50 [16] was > 10 µM (inactive). For the same compound, the GI50 [17] was > 10 µM (inactive).
For CON(C)c1nc(N(C)OC)nc(N(C)OC)n1, the GI50 [1] was > 10 µM (inactive), the GI50 [2] was > 10 µM (inactive) and the GI50 [3] was > 10 µM (inactive). The GI50 [4] was > 10 µM (inactive), the GI50 [5] was > 10 µM (inactive) and the GI50 [6] was > 10 µM (inactive). The GI50 [7] was > 10 µM (inactive), the GI50 [8] was > 10 µM (inactive) and the GI50 [10] was > 10 µM (inactive). The GI50 [11] was > 10 µM (inactive), the GI50 [12] was > 10 µM (inactive) and the GI50 [13] was > 10 µM (inactive). For the same compound, the GI50 [18] was > 10 µM (inactive), the GI50 [14] was > 10 µM and the GI50 [19] was > 10 µM (inactive). The GI50 [15] was > 10 µM (inactive), the GI50 [20] was > 10 µM (inactive) and the GI50 [16] was > 10 µM (inactive). The GI50 [17] was > 10 µM (inactive).
CC1=C2C(O)C(C(C)C(=O)NC(C)C)CCC2(C)C=CC1=O (stereo not given) was tested, and the GI50 [1] was > 100 µM (inactive), the GI50 [2] was > 100 µM (inactive) and the GI50 [3] was > 100 µM (inactive). The GI50 [4] was > 100 µM (inactive), the GI50 [5] was > 100 µM (inactive) and the GI50 [6] was > 100 µM (inactive). For the same compound, the GI50 [7] was > 100 µM (inactive), the GI50 [8] was > 100 µM (inactive) and the GI50 [9] was > 100 µM (inactive). The GI50 [10] was > 100 µM (inactive), the GI50 [11] was > 100 µM (inactive) and the GI50 [12] was > 100 µM (inactive). For the same compound, the GI50 [13] was > 100 µM (inactive), the GI50 [18] was > 100 µM (inactive) and the GI50 [14] was > 100 µM. For the same compound, the GI50 [19] was > 100 µM (inactive), the GI50 [15] was > 100 µM (inactive) and the GI50 [20] was > 100 µM (inactive). The GI50 [16] was > 100 µM (inactive) and the GI50 [17] was > 100 µM (inactive).
With COc1ccc(/C(Cl)=C(\C=O)c2ccc(F)cc2)cc1OC the GI50 [1] was 15.3 µM (inactive), the GI50 [2] was 14.2 µM (inactive) and the GI50 [3] was 16.4 µM (inactive). For the same compound, the GI50 [4] was 28.7 µM (inactive), the GI50 [5] was 37.4 µM (inactive) and the GI50 [6] was 12.3 µM (inactive). For the same compound, the GI50 [7] was 6.64 µM (inactive), the GI50 [10] was 15.9 µM (inactive) and the GI50 [11] was 14.5 µM (inactive). The GI50 [12] was 14 µM (inactive), the GI50 [13] was 19.3 µM (inactive) and the GI50 [18] was 13.5 µM (inactive). For the same compound, the GI50 [14] was 12.8 µM, the GI50 [15] was 21.5 µM (inactive) and the GI50 [20] was 5 µM (inactive). For the same compound, the GI50 [17] was 19.1 µM (inactive).
With Cc1cc(C)nc(NS(=O)(=O)c2ccc(NNC(=O)c3cccc4c(=O)c5ccccc5[nH]c34)cc2)n1 the GI50 [1] was 52.1 µM (inactive), the GI50 [2] was 36 µM (inactive) and the GI50 [3] was 0.0493 µM (active). The GI50 [4] was 83.8 µM (inactive), the GI50 [5] was 88.5 µM (inactive) and the GI50 [6] was 33.6 µM (inactive). The GI50 [7] was 57.5 µM (inactive), the GI50 [8] was 44.9 µM (inactive) and the GI50 [9] was > 100 µM (inactive). For the same compound, the GI50 [10] was 96.6 µM (inactive), the GI50 [11] was 71.6 µM (inactive) and the GI50 [12] was 51.1 µM (inactive). For the same compound, the GI50 [13] was 67.6 µM (inactive), the GI50 [18] was 43.2 µM (inactive) and the GI50 [14] was 48.8 µM. The GI50 [19] was 39.5 µM (inactive), the GI50 [15] was 83.4 µM (inactive) and the GI50 [20] was 23.1 µM (inactive). The GI50 [16] was 72.3 µM (inactive) and the GI50 [17] was > 100 µM (inactive).
